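Test compounds were applied to cells in 96-well plates for 48 hours at 5 doses. GI50 marks 50% less growth. The concentration for full growth arrest is given as TGI.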
What was measured:
Experiment in all cases: NCI-60 cell line screen, 48 h
SK-OV-3 ovarian = tested on: SK-OV-3 ovarian
KM12 colon = tested on: KM12 colon
UO-31 renal = tested on: UO-31 renal
OVCAR-5 ovarian = tested on: OVCAR-5 ovarian
TK-10 renal = tested on: TK-10 renal
HCT-15 colon = tested on: HCT-15 colon
786-0 renal = tested on: 786-0 renal
SF-539 CNS = tested on: SF-539 CNS
NCI-H460 lung = tested on: NCI-H460 lung

Structure (SMILES) | TGI (SK-OV-3 ovarian) | TGI (KM12 colon) | TGI (UO-31 renal) | TGI (OVCAR-5 ovarian) | TGI (TK-10 renal) | TGI (HCT-15 colon) | TGI (786-0 renal) | TGI (SF-539 CNS) | TGI (NCI-H460 lung) | GI50 (SK-OV-3 ovarian) | GI50 (KM12 colon) | GI50 (UO-31 renal) | GI50 (OVCAR-5 ovarian) | GI50 (NCI-H460 lung) | GI50 (TK-10 renal) | GI50 (HCT-15 colon) | GI50 (786-0 renal) | GI50 (SF-539 CNS)
C[C@@H]1CC2(C[C@@H](C)C3[C@@H](CC4(C)CCCC5C6=CC(O)(CC[C@]34C)OC6=CC(=O)OC5(C)C)O2)OC1=O (stereo partly drawn) | > 100 µM | > 100 µM | > 100 µM | > 100 µM | > 100 µM | > 100 µM | > 100 µM | > 100 µM |  |  |  |  |  |  |  |  |  | 
COc1cccc(C=NC23CC4CC(CC(C4)C2)C3)c1 | > 100 µM | > 100 µM | > 100 µM | > 100 µM | > 100 µM | > 100 µM | > 100 µM | > 100 µM | > 100 µM |  |  |  |  |  |  |  |  | 
Cc1cc(O)c2c(c1)OC1(C)CCC3C(C)(C)CCCC34COC2C14 (stereo not drawn) |  | 35.3 µM | 33.2 µM | 29.5 µM |  |  | 30.7 µM | 23.8 µM | 30.6 µM |  |  |  |  |  |  |  |  | 
CNC(=O)NCCCCC(NC(C)=O)C(=O)NCc1ccccc1 (stereo not drawn) | > 100 µM | > 100 µM | > 100 µM | > 100 µM | > 100 µM | > 100 µM | > 100 µM | > 100 µM | > 100 µM |  |  |  |  |  |  |  |  | 
C=C(c1ccccc1)c1cc2c(=O)[nH]ccc2n1C | 69.4 µM | > 100 µM | 66.1 µM | > 100 µM | > 100 µM | > 100 µM | > 100 µM |  | > 100 µM |  |  |  |  |  |  |  |  | 
O=C(C#Cc1ccccc1)NC/C=C/c1ccccc1 | 56.6 µM | > 100 µM | > 100 µM | > 100 µM | > 100 µM | > 100 µM | 56.2 µM | > 100 µM | > 100 µM |  |  |  |  |  |  |  |  | 
O=C(O)C1CC2C=CCC(C2)C1 (stereo not drawn) | > 100 µM | > 100 µM | > 100 µM | > 100 µM | > 100 µM | > 100 µM | > 100 µM |  | > 100 µM |  |  |  |  |  |  |  |  | 
CC(NC1CCCC[C@@H]1O)c1ccccc1 (stereo partly drawn) | > 100 µM | > 100 µM | > 100 µM | > 100 µM | > 100 µM | > 100 µM | > 100 µM |  | > 100 µM |  |  |  |  |  |  |  |  | 
CCOC(=O)/C=C/c1ccc([N+](=O)[O-])o1 | > 100 µM | 27.6 µM | 3.42 µM | 8.13 µM | 16.3 µM | 7.53 µM | 4.67 µM | 7.4 µM | 38.9 µM | 22.4 µM | 12.6 µM | 1.69 µM | 2.95 µM | 18.1 µM | 4.7 µM | 2.03 µM | 2.13 µM | 2.7 µM
O=C1N=C2N=C(c3ccc(Cl)cc3)N(c3ccc(Cl)cc3)N2Sc2ccccc21 | > 100 µM | > 100 µM | > 100 µM | > 100 µM | > 100 µM | > 100 µM | > 100 µM | > 100 µM | > 100 µM |  |  |  |  |  |  |  |  | 
COc1c2c(c(O)c3c4c(c(C)cc13)C1OC3(C(OC)OC5CC(C)(O)C(OC6CC(C)(O)C(O)C(C)O6)C(C)O5)OC1C(OC)(O4)C31CO1)C(=O)C(O)CC2OC1CC(C)(O)C(OC(C)=O)C(C)O1 (stereo not drawn) | 0.714 µM | < 0.01 µM | 0.154 µM | < 0.01 µM | 18.6 µM | 1.58 µM | < 0.0115 µM | < 0.01 µM | 0.15 µM |  |  |  |  |  |  |  |  | 
C/C(=C\c1ccccc1)C(=O)c1c(C)cc(C)cc1C | > 100 µM | > 100 µM | > 100 µM |  | > 100 µM | > 100 µM | > 100 µM | > 100 µM | > 100 µM |  |  |  |  |  |  |  |  | 
c1ccc(N2CCN(CCN3CCc4c([nH]c5ccccc45)C3c3cccnc3)CC2)cc1 (stereo not drawn) | 95.2 µM | > 100 µM | > 100 µM | > 100 µM | > 100 µM | > 100 µM | > 100 µM | > 100 µM | > 100 µM |  |  |  |  |  |  |  |  | 
O=C(NCCCN1CCN(CCCNC(=O)Nc2cc(Cl)ccc2Cl)CC1)Nc1cc(Cl)ccc1Cl | > 100 µM | > 100 µM | > 100 µM | > 100 µM | > 100 µM | > 100 µM | > 100 µM | > 100 µM | > 100 µM |  |  |  |  |  |  |  |  | 
COC(=O)C1=C(O)c2cc(OC)c(OC)c(OC)c2C(c2ccc3c(c2)OCO3)[C@@H]1C(=O)OC (stereo partly drawn) | 8.76 µM | > 100 µM | > 100 µM | > 100 µM | > 100 µM | > 100 µM | > 100 µM | 5.52 µM | > 100 µM |  |  |  |  |  |  |  |  | 
COc1ccc(OCC(=O)O)c2c1CCC(C)C2=O (stereo not drawn) | > 100 µM | > 100 µM | > 100 µM | > 100 µM | > 100 µM | > 100 µM | > 100 µM | > 100 µM | > 100 µM |  |  |  |  |  |  |  |  | 
Nc1ccc(C(=O)N/C(=C\c2ccc3c(c2)OCO3)c2nc3ccccc3s2)cc1 | 36.2 µM | 28 µM | 29 µM | 36.5 µM | 34 µM | 23.4 µM | 23.7 µM | 31.4 µM |  |  |  |  |  |  |  |  |  | 
C/C(=N/NC(N)=S)C(CN1CCOCC1)C(C1=C(O)c2ccccc2OC1)c1ccccc1 (stereo not drawn) | > 100 µM | > 100 µM | > 100 µM | > 100 µM | > 100 µM |  | > 100 µM | > 100 µM | > 100 µM |  |  |  |  |  |  |  |  | 
CN(C)C(=S)/N=c1\ssc(=Nc2ccccc2)n1-c1ccccc1 | 80.5 µM |  | > 100 µM | > 100 µM | 64.4 µM | > 100 µM | 37.1 µM | 32 µM |  |  |  |  |  |  |  |  |  | 

Source: PubChem BioAssay (NCI)
